Results: patent US12678475B2, “Compositions and methods for treating and preventing lung disease” (ARIZONA BOARD OF REGENTS ON BEHALF OF THE UNIVERSITY OF …, priority 2016, dated 2026)

What was measured:
[1] = tested on: SP-A deficient mice challenged in the HDM model; assay: HDM model in SP-A deficient mice, therapeutic SP-A peptides; type: in vivo; conditions: peptide given 24 hrs after the last challenge; for eosinophilia in the lavage compartment: compared to vehicle treated mice (FIG. 3A); for mucin production: compared to vehicle treated mice (FIG. 3B)
Protocol: FIGS. 3A and 3B show the analysis of inflammation in mice that receive “therapeutic” SP-A peptides in the HDM model. Mice were sensitized and challenged in the HDM model according to common methods. Twenty-four hours after the last challenge, mice received either vehicle, a 20-mer or a 10-mer that encompassed the active site containing 223Q. BAL cellularity (left panel) and mucin production (right panel) were assessed 7 days post challenge to assess the role of SP-A on allergic airways resolution. […] Both 223Q and 223K mice are somewhat protected in the acute phase of this model.

[2] = tested on: WT C57BL/6 mice, HDM model; assay: Methacholine-induced airway hyper-responsiveness (AHR) in HDM model; type: in vivo; conditions: 25 mg/mouse in 40 ml saline oropharyngeal 24 h after each challenge, 3-5 days post HDM challenge, vs vehicle
Protocol: Twenty-four hours after each challenge, mice received either scrambled vehicle or a 10-mer SP-A peptide (KEQCVEMYTD (SEQ ID NO: 4)) (arrow) that encompassed the active site containing 223Q (at a physiologic dose of […] delivered in […] of sterile saline) by oropharyngeal instillation. Pulmonary function tests were conducted 3-5 days post HDM challenge to determine if the SP-A peptide could protect from methacholine-induced airway hyper-responsiveness (AHR). Mice that received the SP-A peptide after HDM challenge had attenuated: overall resistance (Rrs) and central airways resistance (Rn) as compared to HDM challenged mice that received vehicle treatment.

[3] = tested on: WT C57BL/6 mice challenged with IL-13; assay: Methacholine-induced airway hyper-responsiveness (AHR) in IL-13 model; type: in vivo; conditions: IL-13 model (3.9 ug IL-13 daily, 3 days); oropharyngeal 2 h after each challenge; 24 hours post IL-13 challenge; vs vehicle
Protocol: WT C57BL/6 mice were challenged with 3.9 ug of IL-13 (arrow) once a day for 3 consecutive days via oropharyngeal instillation. […] Pulmonary function tests were conducted 24 hours post IL-13 challenge to determine if the SP-A peptide could protect from methacholine-induced airway hyper-responsiveness (AHR). Mice that received the SP-A peptide after HDM challenge had attenuated: overall resistance (Rrs) and central airways resistance (Rn) as compared to HDM challenged mice that received vehicle treatment.

[4] = tested on: human airway epithelial cells; assay: IL-13 exposure of airway epithelial cells from asthmatics at air liquid interface, MUC5AC by RT-PCR; type: cell-based
Protocol: Airway epithelial cells at ALI from two asthmatic subjects exposed to IL-13 alone, and IL-13 plus SP-A2 peptide that include the Gln at position 223 in the lectin domain (2230). Full-length oligomeric SP-A that is homozygous at position 223Q/Q was used as a positive control. After 48 hours incubation, MUCSAC expression was determined by RT-PCR
Experiments were conducted wherein airway epithelial cells from two subjects with asthma not on controller therapy were cultured at air liquid interface for two weeks. In separate conditions the cells were exposed to each peptide at 50 ng/ml for 30 minutes followed by IL-13 at 50 ng/ml and incubated for 48 hours. Cells were placed in Trizol MUCSAC was determined by RT-PCR. […] The 10 AA length is especially useful as a therapeutic agent as its size renders it able to be packaged into an inhaler type of device for delivery to the airways.
Regarding FIG. 8, human bronchial epithelial cells obtained from a well-phenotyped asthmatic were grown at an ALI for two weeks prior to experimentation. For challenge, each of the SP-A test peptides (50 μg/ml) were added to the apical compartment at least 30 minutes prior to IL-13 challenge. Muc5AC was analyzed by RT-PCR from cell lysates and analyzed as a fold over the control samples. Peptide sequences: 20-mer […] (SEQ ID NO: 8), peptide 1 PAGRGKEQCV (SEQ ID NO: 2), peptide 2 EMYTDGQWND (SEQ ID NO: 3), peptide 3 KEQCVEMYTD (SEQ ID NO: 4) FL=full length oligomeric SP-A that is extracted from lavage of alveolar proteinosis individuals.

[5] = tested on: WT C57BL/6 mice, house dust mite (HDM) model; assay: House dust mite (HDM) model in WT C57BL/6 mice, mucin production and BAL eosinophilia; type: in vivo; conditions: WT C57BL/6, HDM days 0, 7, 14; 25 μg/mouse oropharyngeal 24 h after last challenge (FIGS. 5, 6)
Protocol: Regarding FIG. 5, WT C57BL/6 mice were sensitized and challenged in the house dust mite (HDM) model according to standard methods on days 0, 7, 14 (black arrows). Twenty-four hours after the last challenge, mice received either scrambled vehicle or a 20-mer SP-A peptide (dotted arrow) that encompassed the active site containing 223Q (at a physiologic dose of 25 μg/mouse delivered in 40 μl of sterile saline) by oropharyngeal instillation. Lung histological sections were analyzed for mucin production as assessed by PAS stain/scoring to determine if the SP-A peptide could protect from HDM-induced airway mucin production. […] Peptide sequence: […] (SEQ ID NO: 8).
Regarding FIG. 6, WT C57BL/6 mice were sensitized and challenged in the house dust mite (HDM) model according to standard methods on days 0, 7, 14 as shown in FIG. 5 (black arrows). […] Lung histological sections were analyzed for mucin production as assessed by PAS stain/scoring to determine if the SP-A peptide could protect from HDM-induced airway mucin production. […]
Regarding FIG. 7, WT C57BL/6 mice were sensitized and challenged in the house dust mite (HDM) model according to standard methods on days 0, 7, 14 as shown in FIG. 5 (black arrows). […] Bronchoalveolar lavage samples were analyzed for eosinophilia to determine if the SP-A peptide could protect from HDM-induced airway eosinophilia by decreasing eosinophil viability. […]

eosinophils = assay: In vitro studies with isolated eosinophils; type: cell-based
[6] = airway epithelial cells from asthmatic subjects with allergic or type 2 asthma

Substance	eosinophilia in the lavage compartment [1]	mucin production [1]	central airways resistance (Rn) [2]	overall resistance (Rrs) [2]	central airways resistance (Rn) [3]	overall resistance (Rrs) [3]	MUCSAC expression (RT-PCR) ([4]; cells from two asthmatic subjects at ALI, peptide 50 ng/ml 30 minutes, then IL-13 50 ng/ml, 48 hours (FIG. 4))	mucin production (PAS stain/scoring) [5]	IL-6 induced by IL-13 [4, 6]	mucin induced by IL-13 [4, 6]	eosinophil apoptosis (eosinophils)
KEQCVEMYTD (listed as Homo sapiens) [SEQ ID NO: 4]	significantly less eosinophilia	less mucin production	attenuated	attenuated	attenuated	attenuated	attenuates				
PAGRGKEQCVEMYTDGQWND (listed as Homo sapiens) [SEQ ID NO: 8]	significantly less eosinophilia	less mucin production						reduce mucin production			
SP-A: Surfactant protein-A, a secreted lipoprotein complex; full length oligomeric SP-A extracted from lavage of alveolar proteinosis individuals									attenuates	attenuates	directly stimulates eosinophil apoptosis
